This note sets out measurements from ChEMBL document CHEMBL1828591, “Synthesis of antimitotic thioglycosides: in vitro and in vivo evaluation of their anticancer activity” (J Med Chem, 2011).

Each structure is given as a SMILES string. Activity calls are given as the source filed them. The calls are words filed in the database; no cut-off is given here.

Data set [1] deals with A549. Briefly: Antiproliferative activity against human A549 cells after 48 hrs by MTT assay. It is filed as functional. Particulars: A549, 48 h, read-out: ID50 (the source's name). Background: Formazan colour is commonly taken as a measure of viable cells.
In data set [2] the test system is C6. Briefly: Antiproliferative activity against rat C6 cells after 48 hrs by MTT assay. The data set is classed as functional. The conditions noted are these: C6, 48 h, read-out: ID50 (the source's name).
Data set [3] concerns A549. Description: Elevation in glucosylceramide content of human A549 cell extract at 15 uM after 48 hrs by UPLC-MS analysis. The data set is classed as functional, cell-based.
In data set [4] the test system is A549. Description: Elevation in lactosylceramide content of human A549 cell extract at 15 uM after 48 hrs by UPLC-MS analysis. The data set is classed as functional.
Data set [5] relates to A549. Description: Reduction in ganglioside GM2 content of human A549 cell extract at 15 uM after 48 hrs by UPLC-MS analysis. The data set is classed as functional, cell-based.
The subject of data set [6] is A549. Briefly: Reduction in ganglioside GM3 content of human A549 cell extract at 15 uM after 48 hrs by UPLC-MS analysis. The data set is classed as functional, cell-based.
Data set [7] has as its system A549. Description: Drug uptake in 10^6 human A549 cells at 15 uM after 48 hrs by UPLC-MS analysis. The data set is classed as ADME, cell-based. Particulars: a549, 48 h.
Data set [8] is described as follows: Stability of the compound in presence of Jack bean N-acetyl-D-glucosaminidase at 1 mM after 48 hrs by HPLC analysis. It is filed as ADME. The conditions noted are these: 1000 µM.
Data set [9] relates to A549. Description: Reduction in glucosylceramide content of human A549 cell extract at 15 uM after 48 hrs by UPLC-MS analysis. The data set is classed as functional, cell-based.
Data set [10] has as its system C6. Description: Antitumor activity against rat C6 cells xenografted in nude mouse assessed as reduction in tumor size at 1 mg/kg, intratumorally administered for 14 days. The data set is classed as functional, organism-based. Set-up: dose 1 mg/kg.
Data set [11] in a line: Drug uptake in cyst of nude mouse xenografted with rat C6 cells assessed as formation of olelyl alcohol at 10 mg/kg, intratumorally administered for 8 days by 1H MAS NMR spectroscopy. The data set is classed as ADME, organism-based. Also on record: dose 10 mg/kg. Particulars: in vivo, other, 192 h.
For data set [12], the system named is C6. Description: Antitumor activity against rat C6 cells xenografted in nude mouse assessed as delay in tumor growth at 1 to 10 mg/kg, intratumorally administered for 8 days measured after 8 days relative to control. The data set is classed as functional, organism-based.
For data set [13], the system named is C6. Description: Antitumor activity against rat C6 cells xenografted in nude mouse assessed as reduction in tumor volume at 1 to 10 mg/kg, intratumorally administered for 8 days measured after 8 days relative to control. The data set is classed as functional, organism-based.
The test system of data set [14] is N-acetyl-D-glucosaminidase. Briefly: Stability of the compound in presence of Jack bean N-acetyl-D-glucosaminidase assessed as compound hydrolyzed to N-acetyl-D-glucosamine at 1 mM after 48 hrs by HPLC analysis. The data set is classed as ADME. Particulars: Jack bean N-acetyl-D-glucosaminidase (isolated enzyme), read-out: Activity.
Data set [15] relates to C6. Briefly: Antitumor activity against rat C6 cells xenografted in nude mouse assessed as reduction in tumor size at 10 mg/kg, intratumorally administered for 14 days relative to control. The data set is classed as functional, organism-based. Also on record: dose 10 mg/kg.
Data set [16] has as its system C6. Description: Antitumor activity against rat C6 cells xenografted in nude mouse assessed as reduction of creatine levels in tumor at 10 mg/kg, intratumorally administered for 14 days by 1H MAS NMR spectroscopy relative to control. The data set is classed as functional, organism-based. Also on record: dose 10 mg/kg.
Data set [17] relates to C6. Briefly: Antitumor activity against rat C6 cells xenografted in nude mouse assessed as increase in choline-containing metabolite levels in tumor at 10 mg/kg, intratumorally administered for 14 days by 1H MAS NMR spectroscopy relative to control. The data set is classed as functional, organism-based. Also on record: dose 10 mg/kg.
Data set [18] deals with C6. Description: Antitumor activity against rat C6 cells xenografted in nude mouse assessed as increase in lactate levels in tumor at 10 mg/kg, intratumorally administered for 14 days by 1H MAS NMR spectroscopy relative to control. It is filed as functional, organism-based. Set-up: dose 10 mg/kg.
For data set [19], the system named is C6. Description: Antitumor activity against rat C6 cells xenografted in nude mouse assessed as increase in acetate levels in tumor at 10 mg/kg, intratumorally administered for 14 days by 1H MAS NMR spectroscopy relative to control. It is filed as functional, organism-based. Set-up: dose 10 mg/kg.

`CCCCCCCC/C=C\CCCCCCCCS[C@@H]1O[C@H](CO)[C@@H](O)[C@H](O)[C@H]1NC(C)=O`: the IC50 in the data set on A549 [1] is 30 µM; in the data set on C6 [2], 26 µM. For the same molecule, the result in the data set with A549 [3] was inactive. This molecule displayed an Activity in the data set with A549 [4] of 40%. For the same molecule, the result in the data set with A549 [5] and with A549 [6] was Active. The molecule also displayed a Drug uptake in the data set on A549 [7] of 3333 pmol. Further, in data set [8], the Stability result is listed as “Stable”.

Turning to `CCCCCCCC/C=C\CCCCCCCCO[C@H]1O[C@H](CO)[C@@H](O)[C@H](O)[C@H]1NC(C)=O`, the values for the IC50 in the data set with A549 [1] and with C6 [2] were 25 µM and 16 µM, respectively. Moreover, the outcome in the data set with A549 [9], in the data set on C6 [10], with C6 [12] and in the data set on C6 [13] was inactive. In the data set with A549 [4], this molecule gave an Activity of 40%. For the same molecule, the outcome in the data set on A549 [5] and with A549 [6] was Active. Moreover, the results for the Drug uptake (with A549 [7]; in data set [11]) were 2916 pmol and “Active”, respectively.

In the case of `CCCCCCCC/C=C\CCCCCCCCO[C@@H]1O[C@H](CO)[C@@H](O)[C@H](O)[C@H]1NC(C)=O`, in [14], the metabolised at 48 h, 1000 µM amounted to 32%. The IC50 was found to be 50 µM with A549 [1] and 38 µM in the data set with C6 [2]. Also, the outcome in the data set with A549 [3] was inactive. Moreover, the Activity in the data set on A549 [4] is on record as 40%. Further, the result with A549 [5] and with A549 [6] was Active. In the data set with A549 [7], the Drug uptake stood at 952 pmol.

As for `CCCCCCCC/C=C\CCCCCCCCS[C@H]1O[C@H](CO)[C@@H](O)[C@H](O)[C@H]1NC(C)=O`, the values for the IC50 in the data set on A549 [1] and in the data set with C6 [2] were 35 µM and 14 µM, respectively. The result with A549 [9] and in the data set on C6 [10] was inactive. The same molecule registered an Activity in the data set with A549 [4] of 40%. The outcome with A549 [5], with A549 [6], with C6 [15], in the data set on C6 [16], with C6 [17] and in the data set on C6 [18] was Active. Besides, in the data set on C6 [19], the result was Active. In the data set with A549 [7], this molecule returned a Drug uptake of 3675 pmol.
